Counter-ions that a name gives are not always drawn.
Target: T1, RIPK2 (Homo sapiens, UniProt O43353)
T1 construct: Full length FLAG His tagged RIPK2 was purified from a Baculovirus expression system; FLAG (N); 6His (N); made in house; host or cells: Spodoptera frugiperda (Sf9) insect cells, baculovirus
Assay: Fluorescent polarization based binding assay at the ATP binding pocket of RIPK2
Conditions: FP competition with fluorescently labeled ATP competitive ligand (5 nM); full length FLAG His tagged RIPK2; mean of a minimum of 2 experiments; read-out: mean pIC50 (converted)
From the text: A fluorescent polarization based binding assay was developed to quantitate interaction of novel test compounds at the ATP binding pocket of RIPK2, by competition with a fluorescently labeled ATP competitive ligand. Full length FLAG His tagged RIPK2 was purified from a Baculovirus expression system and was used at a final assay concentration of twice the KDapparent. A fluorescent labeled ligand (5-({[2-({[3-({4-[(5-hydroxy-2-methylphenyl)amino]-2-pyrimidinyl}amino)phenyl]carbonyl}amino)ethyl]amino}carbonyl)-2-(6-hydroxy-3-oxo-3H-xanthen-9-yl)benzoic acid, prepared as described below) was used at a final assay concentration of 5 nM. Both the enzyme and ligand were prepared in solutions in 50 mM HEPES pH7.5, 150 mM NaCl, 10 mM MgCl2, 1 mM DTT, and 1 mM CHAPS. Test compounds were prepared in 100% DMSO and 100 nL was dispensed to individual wells of a multiwell plate. Next, 5 ul RIPK2 was added to the test compounds at twice the final assay concentration, and incubated at room temperature for 10 minutes. […] Finally, samples were read on an instrument capable of measuring fluorescent polarization. Test compound inhibition was expressed as percent (%) inhibition of internal assay controls.
For concentration response experiments, normalized data were fit and pIC50 s determined using conventional techniques. […]

T1 sequence (O43353 whole entry): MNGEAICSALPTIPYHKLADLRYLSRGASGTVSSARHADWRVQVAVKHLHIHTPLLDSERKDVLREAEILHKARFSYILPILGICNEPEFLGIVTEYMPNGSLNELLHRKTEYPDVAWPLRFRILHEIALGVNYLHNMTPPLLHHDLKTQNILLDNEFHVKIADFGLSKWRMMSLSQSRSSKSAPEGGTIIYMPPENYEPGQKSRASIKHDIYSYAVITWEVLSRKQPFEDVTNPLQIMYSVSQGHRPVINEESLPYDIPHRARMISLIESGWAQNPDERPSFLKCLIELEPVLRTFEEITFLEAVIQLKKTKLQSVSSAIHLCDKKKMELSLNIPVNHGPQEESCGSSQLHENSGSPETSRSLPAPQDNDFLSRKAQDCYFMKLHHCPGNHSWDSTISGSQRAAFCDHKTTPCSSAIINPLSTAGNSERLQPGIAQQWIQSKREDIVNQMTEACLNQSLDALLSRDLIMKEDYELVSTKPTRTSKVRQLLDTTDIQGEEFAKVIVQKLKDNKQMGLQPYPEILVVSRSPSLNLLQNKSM

Row | IC50 | Compound
1 | 7.94 nM | COc1ccc2[nH]nc(Nc3ccnc(Nc4cc(OC)c(OC)c(OC)c4)n3)c2c1 [Example 12, N^4-[5-(methyloxy)-1H-indazol-3-yl]-N^2-[3,4,5-tris(methyloxy)phenyl]-2,4-pyrimidinediamine]
2 | 50.1 nM | COc1ccc2[nH]nc(Nc3ccnc(Nc4ccc(F)c(S(C)(=O)=O)c4)n3)c2c1 [Example 27, N^2-[4-fluoro-3-(methylsulfonyl)phenyl]-N^4-[5-(methyloxy)-1H-indazol-3-yl]-2,4-pyrimidinediamine trifluoroacetate]

Source: patent publication US20130023532A1, “INDAZOLYL-PYRIMIDINES AS KINASE INHIBITORS” (priority 2010, published 2013)
